For one data set, the system named is MCF-7. Briefly: Growth inhibition (sulforhodamine B assay), single agents and combination. Conditions: for IC50: Homo sapiens, read-out: 50% Inhibitory Concentrations (IC50) at 72 h; for Survival (% control cells): single agent 1 μM. The class given is cell-based, human. The method, then:
(§1) The following human breast tumor cell lines, obtained from Dr. R. Sutherland (Garvan Institute, Sydney, Australia) were tested: T-47D, BT-20 and MCF-7. The following human neuroblastoma cell lines, purchased from ATCC, were tested: SK-N-BE, SK-N-SH, SK-N-MC, and GI-LI-N. All cell lines were grown in monolayer, in medium containing 10% fetal bovine serum (Invitrogen) in 5% CO2 at 37° C. The medium for A2780, A2780/HPR, IGROV-1, OVCA432, SKOV-3, T-47D, BT-20, MCF-7, GI-LI-N and SK-N-BE cells was RPMI 1640 (Cambrex, Verviers, Belgium) and the medium for OAW42, SK-N-MC and SK-N-SH cells was EMEM (ATCC).
(§2) For the growth inhibition assays, cells were seeded at a density of 3500 cells per well in 96 cluster tissue culture plates, and treated 24 hr after seeding with different concentrations of 4-oxo-4-HPR or 4-HPR. 4-oxo-4-HPR was dissolved in absolute ethanol and 4-HPR (obtained from Dr. J. A. Crowell —NCI Bethesda, Md., USA) was dissolved in Me2SO. […] Control cultures received the same amount of ethanol or Me2SO as the treated cultures. 72 hr after treatment cell number was estimated by using the sulforhodamine B assay according to Monks et al., (J. Natl. Cancer, 1991, 11: 757–766). The survival of treated cells was calculated for the various drug concentrations as percentage of the survival of control cells. The antiproliferative activity of 4-oxo-4-HPR and 4-HPR in each cell line, was tested in three separate experiments and the average values ±SD are reported in FIGS. 2, 3, and 4.
(§3) The antiproliferative effect of the combination of the two drugs, administered at one single dose, was also tested in other ovarian carcinoma cell lines and in breast tumor cell lines. The type of interaction between 4-HPR and 4-oxo-4-HPR was assessed by the method of Drevinko et al., as described in Cancer Biochem. Biophys., 1976, 1:187–195. For this evaluation the drugs were assumed to provide independent effects. The combination index (CI) was calculated as follows: survival fraction (SF) of the combination of 4-HPR+4-oxo-4-HPR divided by (SF 4-HPR×SF 4-oxo-4-HPR). The results for CI are defined as follows: CI=1 indicates an additive effect, CI<1 indicates a supra-additive effect and CI>1 indicates a sub-additive effect.

The test system of the next data set is T-47D. The data set is described as above. It counts as cell-based, human. Conditions: for IC50: Homo sapiens, T47D, read-out: 50% Inhibitory Concentrations (IC50) at 72 h; for IC50 / Survival (% control cells): 72 h; for Survival (% control cells): single agent 1 μM. The method, then: as §1, §2, §3
In the next data set the test system is BT-20. Described as above. It counts as cell-based, human. The method, then: as §1, §2, §3
The next data set deals with plasma retinol levels. The data set can be described thus: Effects on plasma retinol in mice. It counts as in vivo. The conditions noted are these: mice i.p. 120 mg/kg for 4 days; for Retinol % reduction: plasma, baseline vs 5 h after last treatment, control 22. The method, then:
One of the main side effects of 4-HPR, is diminished dark adaptation or nyctalopia (Formelli et al., FASEB J., 1996, 10:1014–1024) which is caused by a decrease in plasma retinol levels (Formelli et al., Cancer Res., 49:6149–6152). The influence of 4-oxo-4-HPR on plasma retinol levels was assessed in mice and was compared with the effects caused by 4-HPR. Animal studies were approved by the Ethics Committee for Animal Experimentation of Istituto Nazionale Tumori (Milan Italy) and were carried out according to national and international guidelines (Italian Governing Law, Legislative decree 116, Jan. 27, 1992 and UKCCCR guidelines for the welfare of animals in experimental neoplasia. Br. J. Cancer 1988, 58:109–113). Female Swiss nude mice (7–9 weeks old) were supplied by Charles River (Calco, Italy) and kept in laminar air-flow rooms in sterilised cages, with bedding, food and acidified water. 4-HPR was obtained from Dr. J. A. Crowell —NCI Bethesda, Md., USA. 4-oxo-4-HPR and 4-HPR were dissolved in absolute ethanol and then diluted in a sterile 0.9% (w/v) NaCl solution containing 1,65 mg/ml bovine serum albumin (Sigma, St Louis, Mo., USA) at a final ethanol concentration of 10% (v/v). The drug solutions were freshly prepared once a week, protected from light and kept at 4° C. Mice were treated i.p. with 120 mg/kg of 4-oxo-4-HPR or 4-HPR for 4 days. The two drugs were delivered at a volume of 10 ml/kg of body weight. Control mice were treated with the same solvent of 4-oxo-4HPR and 4-HPR. Three mice per group were used. Blood samples, for drug and retinol measurements, were drawn from the retroorbital plexus of anesthetized mice before and 5 hr after the last treatment, collected into heparinized tubes and wrapped in aluminium foil in order to protect them from light. Retinol and drug concentrations in plasma were assayed by HPLC as previously described (Formelli et al., Cancer Res. 1989, 49:6149–6152) and as above reported (see Exemple 1) and are reported in Table 3.

The subject of another data set is A2780/HPR. Briefly: Apoptosis induction (Cell Death Detection ELISA, DNA fragmentation). It counts as cell-based, human. Conditions: 5 μM, 24 hr. The method, then:
Although the mechanism of action of 4-HPR is not well understood, its tumor growth inhibitory effects have been attributed to apoptosis induction (Supino et al., Int. J. Cancer, 1996, 65:491–497). The apoptosis inducing effects of 4-oxo-4-HPR were compared with those of 4-HPR in the human ovarian carcinoma cell line A2780 and in its counterpart A2780/HPR, with induced resistance to 4-HPR. Apoptosis was evaluated by a Cell Death Detection ELISA Plus Assay Kit (Roche Diagnostic GmbH, Germany) according to the manufacturer's instructions. This assay quantitates the amount of cytoplasmic histone-associated DNA fragments which increases during apoptosis. Cells were seeded in 96-well cell culture plates and treated the day after with 5 μM 4-oxo-4-HPR or 4-HPR for 24 hr.

Read-outs that look alike come from different tables or passages of the source.

`CC1=C(/C=C/C(C)=C/C=C/C(C)=C/C(=O)Nc2ccc(O)cc2)C(C)(C)CCC1` [4-HPR, N-(4-hydroxyphenyl)retinamide, reference compound]: the IC50 with MCF-7 (MCF7, MCF-7, 72 h) came out at 3 µM; in the data set with T-47D (T-47D) it was 4 µM; in the data set with BT-20 (Homo sapiens; BT-20; 72 h; read-out: 50% Inhibitory Concentrations (IC50) at 72 h), 7 µM. Besides, the “Survival (% control cells)” value in the data set with MCF-7 (MCF-7, 72 h) is on record as 86 % control cells; in the data set on T-47D (T-47D), 90 % control cells; in the data set on BT-20 (BT-20; single agent 1 μM; 72 h) it was 89 % control cells. For the same compound, the Retinol % reduction in the data set on plasma retinol levels is 56%. Besides, the “induction of apoptosis (DNA fragmentation, fold versus control cells)” value in the data set with A2780/HPR is “had no effect”.

For the compound `CC1=C(/C=C/C(C)=C/C=C/C(C)=C/C(=O)Nc2ccc(O)cc2)C(C)(C)CCC1=O` [4-oxo-4-HPR, 4-oxo-N-(4-hydroxyphenyl)retinamide], the IC50 with MCF-7 (MCF7, 72 h) stood at 1.5 µM; with T-47D, 2.5 µM; with BT-20 (Homo sapiens, BT-20, 72 h, read-out: 50% Inhibitory Concentrations (IC50) at 72 h) it was 2 µM. Also, the “tumor cell survival (FIG. 3), compared with 4-HPR, in words” value with MCF-7 (MCF-7, 72 hr) is listed as “more potent than 4-HPR”; in the data set on T-47D (T-47D, 72 hr) it was “similarly effective”; in the data set on BT-20 (BT-20; 72 hr), “more potent than 4-HPR”. Moreover, the “Survival (% control cells)” value was 56 % control cells in the data set on MCF-7 (MCF-7, 72 h); 94 % control cells in the data set on T-47D (T-47D); 70 % control cells in the data set with BT-20 (BT-20; single agent 1 μM; 72 h). The “reduction of plasma retinol levels, in words” value with plasma retinol levels is “reduction only slightly higher than observed in control mice”. Also, the Retinol % reduction with plasma retinol levels is reported as 38%. Besides, the “induction of apoptosis (DNA fragmentation, fold versus control cells)” value in the data set on A2780/HPR was “induced apoptosis”.
